`N=C(NCCCCN1CCC(CCCC(N)=O)CC1)NC(=O)c1nc(Cl)c(N)nc1N` [Example 1, 4-(1-{4-[N′-(3,5-diamino-6-chloropyrazine-2-carbonyl)guanidino]-butyl}piperidin-4-yl)butyramide]: the melting point (usually the temperature of the solid-liquid transition) was 143 to 147 °C.

Values taken from US8143256B2, “Cyclic amide and ester pyrazinoylguanidine sodium channel blockers” (Parion Sciences, Inc., priority 2004, dated 2012).
